Patent US20070148710A1, “Cpt resistant cell line” (priority 2003, published 2007)
Values after ≈ are worked out from the molar mass of the structure shown. Read-outs that look alike come from different tables or passages of the source.

How the values were obtained:
SW948CPTL cells [1] = assay: clonogenic assay, CPT-11 IC50; type: cell-based; conditions: Homo sapiens, read-out: CPT-11 IC50
Protocol: 8. […] IC50 was determined using a clonogenic assay.

SW948CPTH = assay: cell proliferation assay, cross-resistance to topoisomerase I and II inhibitors; type: cell-based, human
Excerpt: (§1) Drug resistance to other topoisomerase I and II inhibitors was examined by determining the IC50 dose of each drug using a cell proliferation assay as shown in Table 3.

SW948 = assay: as above; type: cell-based, human; conditions: Homo sapiens; SW948 parental; mean ± SD, 2-4 independent assays; read-out: Sensitivity expressed as IC50
Excerpt: as §1

SW948CPTL cells [2] = assay: intracellular accumulation of CPT-11 (HPLC), effect of verapamil; type: cell-based, human; conditions: SW948CPTL vs parent SW948; CPT-11 160 μM, 2 hours, 37° C. (FIG. 6A)
Excerpt: (§2) 10. […] Cells were washed, trypsinized, and counted. Cell pellets were lysed with water and sonicated. […] Results were generated from three independent experiments. […] Data are expressed as mean±SD. […] Data are the mean±SD of two experiments done in triplicate.
(§3) Additionally, multidrug resistance can be evaluated by measuring the expression level of p-glycoprotein (p-gp) (Juliano et al Biochim Biophys Acta 11:152-162, 1976) and breast cancer resistant protein (BCRP) (Doyle et al Proc Natl Acad Sci U S A 95:15665-15670, 1998) in SW948 and the resistant SW948 cell lines (SW948CPTH and SW948CPTL). It is understood that the disclosed methods can also be used with other cell lines including other colon cancer cell lines. For example, the disclosed methods can be used with LS174T, WiDr, HT-29, SW403, DLD-1, SW480, SNU-C1, Caco-2, and COLO 205 cell lines.

SW948CPTH cells [3] = assay: as above; type: cell-based, human; conditions: SW948CPTH vs parent SW948; CPT-11 160 μM, 2 hours, 37° C. (FIG. 6A)
Excerpt: as §2, §3

SW948CPTH cells [4] = assay: clonogenic assay, CPT-11 IC50; type: cell-based; conditions: Homo sapiens
Protocol: 7. […] IC50 was determined using a clonogenic assay.
Ten days later, the surviving fraction of the SW948 and SW948CPTH cells was determined.
The cells were then washed, fresh medium added, and plated for colony formation.

SW948 cells [5] = assay: clonogenic cell survival assay, CPT-11 IC50; type: cell-based; conditions: Homo sapiens
Protocol: 81. […] Cells were then washed with PBS and cultured in fresh medium without CPT-11 and a colony formation assay initiated. Ten days later, the surviving fraction of the SW948 and SW948CPTH cells was determined.
82. […] This level of sensitivity was similar to that reported for other cell lines (Kanzawa et al. Cancer Res 50:5919-5924, 1990; Kojima et al. Cancer Res 58:4368-4374, 1998; and Kojima et al. J Clin Invest 101:1789-1796, 1998).

SW948 cells [6] = assay: cell cycle analysis; type: cell-based, human
[7] = tested on: SW948 colon carcinoma cells; assay: induction of early apoptosis (annexin V-FITC / propidium iodide, FACS); type: cell-based, human; conditions: SW948 in vitro, 4 days post-treatment (FIG. 10)
Excerpt: 14. […] Floating and adherent cells were collected 4 days post-treatment. The treatments are described in the legend for FIG. 8. The cells were stained with annexin V-FITC and propidium iodide, then analyzed by FACS using CellQuest software (Beckton-Dickenson, San Diego, Calif.). Data points are the average±SEM of a representative experiment done in triplicate.

SW948CPTL cells [8] = assay: cell cycle analysis; type: cell-based, human
[9] = tested on: SW948CPTH cell lines recovered from xenografts; assay: clonogenic assay on cell lines recovered from tumor xenografts; type: cell-based; conditions: Homo sapiens, cultured 2-4 weeks CPT-11-free
SW948CPTH cells [10] = assay: cell cycle analysis; type: cell-based, human
[11] = SW948 parent cell line, dose dependent

CCc1c2c(nc3ccc(OC(=O)N4CCC(N5CCCCC5)CC4)cc13)-c1cc3c(c(=O)n1C2)COC(=O)[C@]3(O)CC [CPT-11, Irinotecan] showed an IC50 (SW948CPTL cells [1]; 168 h) of 4.8 µg/mL (≈ 8.18 µM), an IC50 (SW948CPTL cells [1]; 600 h) of 12.9 µg/mL (≈ 22 µM) and an IC50 (SW948CPTL cells [1]) of 16 µg/mL (≈ 27.3 µM). For the same compound, the IC50 (SW948CPTH; Homo sapiens, read-out: Sensitivity expressed as IC50) was 43.7 ± 8.6 µg/mL (≈ 74.5 µM), the “change in resistance of SW948CPTH cells compared to the parental cell line SW948” value (SW948CPTH; IC50 by cell proliferation assay (Table 3)) was “increased resistance” and the IC50 (SW948) was 3 ± 0.4 µg/mL (≈ 5.11 µM). For the same compound, the “intracellular accumulation of CPT-11” value (SW948CPTL cells [2]) was “lower than the parent cell line SW948”, the “intracellular accumulation of CPT-11” value (SW948CPTH cells [3]) was “lower than the parent cell line SW948” and the IC50 (SW948CPTH cells [4]; 192 h, read-out: CPT-11 IC50, SW948CPTH exposed to 80 μg/ml CPT-11, 8 days when assayed, tested in presence of CPT-11) was 79 µg/mL. It also gave an IC50 (SW948CPTH cells [4]; 336 h, read-out: CPT-11 IC50, SW948CPTH exposed to 8 μg/ml CPT-11, 14 days when assayed, tested in presence of CPT-11) of 18.2 µg/mL, an IC50 (SW948CPTH cells [4]; 480 h, read-out: CPT-11 IC50, SW948CPTH exposed to 8 μg/ml CPT-11, 20 days when assayed, tested in presence of CPT-11) of 15.6 µg/mL and an IC50 (SW948CPTH cells [4]; 480 h, read-out: CPT-11 IC50, SW948CPTH exposed to 30 μg/ml CPT-11, 20 days when assayed, tested in presence of CPT-11) of 18 µg/mL. It also gave an IC50 (SW948CPTH cells [4]; 552 h, read-out: CPT-11 IC50, SW948CPTH exposed to 10 μg/ml CPT-11, 23 days when assayed, tested in presence of CPT-11) of 21.3 µg/mL, an IC50 (SW948CPTH cells [4]; 600 h, read-out: CPT-11 IC50, SW948CPTH exposed to 20 μg/ml CPT-11, 25 days when assayed, tested in presence of CPT-11) of 23.6 µg/mL and an IC50 (SW948CPTH cells [4]; […], read-out: CPT-11 IC50, SW948CPTH exposed to 30 μg/ml CPT-11, 19 days when assayed, tested in presence of CPT-11) of 21.3 µg/mL. It also gave an IC50 (SW948CPTH cells [4]; read-out: CPT-11 IC50, SW948CPTH exposed to 20 μg/ml CPT-11, 30 days when assayed, tested in presence of CPT-11) of 18.2 µg/mL, an IC50 (SW948CPTH cells [4]; read-out: CPT-11 IC50, SW948CPTH exposed to 20 μg/ml CPT-11, 51 days when assayed, tested in presence of CPT-11) of 24 µg/mL and an IC50 (SW948CPTH cells [4]; read-out: CPT-11 IC50, SW948CPTH exposed to 20 μg/ml CPT-11, 60 days, CPT-11 withdrawn for 33 days prior to IC50 determination) of 19 µg/mL (≈ 32.4 µM). It also gave an IC50 (SW948CPTH cells [4]; read-out: CPT-11 IC50, SW948CPTH exposed to 20 μg/ml CPT-11, 65 days when assayed, tested in presence of CPT-11) of 34 µg/mL, an IC50 (SW948CPTH cells [4]; read-out: CPT-11 IC50, SW948CPTH exposed to 30 μg/ml CPT-11, 47 days when assayed, tested in presence of CPT-11) of 19 µg/mL and an IC50 (SW948CPTH cells [4]; read-out: CPT-11 IC50, SW948CPTH exposed to 40 μg/ml CPT-11, 30 days when assayed, tested in presence of CPT-11) of 55 µg/mL. The IC50 (SW948CPTH cells [4]; read-out: CPT-11 IC50 Dose, SW948CPTH treated 20 μg/ml CPT-11 62 days, 5 days after removal of CPT-11) was 25 µg/mL (≈ 42.6 µM), the IC50 (SW948CPTH cells [4]; read-out: CPT-11 IC50 Dose, SW948CPTH treated 20 μg/ml CPT-11 62 days, 21 days after removal of CPT-11) was 18.9 µg/mL (≈ 32.2 µM) and the IC50 (SW948CPTH cells [4]; read-out: CPT-11 IC50 Dose, SW948CPTH treated 20 μg/ml CPT-11 62 days, 40 days after removal of CPT-11) was 19 µg/mL (≈ 32.4 µM). The IC50 (SW948CPTH cells [4]; read-out: CPT-11 IC50 Dose, SW948CPTH treated 20 μg/ml CPT-11 62 days, 45 days after removal of CPT-11) was 19.2 µg/mL (≈ 32.7 µM), the IC50 (SW948CPTH cells [4]; read-out: CPT-11 IC50 Dose, SW948CPTH treated 20 μg/ml CPT-11 62 days, 68 days after removal of CPT-11) was 11.4 µg/mL (≈ 19.4 µM) and the IC50 (SW948CPTH cells [4]; read-out: CPT-11 IC50 Dose, SW948CPTH treated 20 μg/ml CPT-11 62 days, 89 days after removal of CPT-11) was 13.4 µg/mL (≈ 22.8 µM). For the same compound, the IC50 (SW948 cells [5]; SW948, read-out: CPT-11 IC50 concentration (colony formation)) was 2.8 µg/mL (≈ 4.77 µM), the IC50 (SW948 cells [5]; read-out: CPT-11 IC50 of untreated SW948 cells, untreated SW948, mean value) was 2.1 ± 0.3 µg/mL (≈ 3.58 µM) and the “G0-G1(%)” value (SW948 cells [6]; SW948, CPT-11 1 μg/ml) was 36.0 ± 3.2%. The “S(%)” value (SW948 cells [6]; SW948, CPT-11 1 μg/ml) was 39.6 ± 3.8%, the “G0-G1(%)” value (SW948 cells [6]; SW948, CPT-11 2 μg/ml) was 22.1 ± 2.0% and the “G2-M(%)” value (SW948 cells [6]; SW948, CPT-11 2 μg/ml) was 35.8 ± 5.1%. For the same compound, the “S(%)” value (SW948 cells [6]; SW948, CPT-11 2 μg/ml) was 42.1 ± 6.7%, the “G0-G1(%)” value (SW948 cells [6]; SW948, CPT-11 5 μg/ml) was 17.0 ± 1.9% and the “G2-M(%)” value (SW948 cells [6]; SW948, CPT-11 5 μg/ml) was 41.0 ± 2.5%. For the same compound, the “S(%)” value (SW948 cells [6]; SW948, CPT-11 5 μg/ml) was 42 ± 2.5%, the “change of S phase” value (SW948 cells [6]; SW948 parent cell line) was “No obvious changes” and the “change of percentage of cells in the G0-G1 phase” value (SW948 cells [6]; [11]) was “decreased”. For the same compound, the “change of percentage of cells in the G2-M phase” value (SW948 cells [6]; [11]) was “increased”, the induction of apoptosis [7] was “high level of apoptosis” and the “G0-G1(%)” value (SW948CPTL cells [8]; CPT-11 1 μg/ml) was 50.0 ± 1.7%. For the same compound, the “G2-M(%)” value (SW948CPTL cells [8]; CPT-11 1 μg/ml) was 10.0 ± 1.4%, the “S(%)” value (SW948CPTL cells [8]; CPT-11 1 μg/ml) was 40.3 ± 2.4% and the “G2-M(%)” value (SW948CPTL cells [8]; CPT-11 2 μg/ml) was 11.2 ± 2.6%. The “S(%)” value (SW948CPTL cells [8]; CPT-11 2 μg/ml) was 43.1 ± 6.5%, the “G2-M(%)” value (SW948CPTL cells [8]; CPT-11 5 μg/ml) was 13.9 ± 2.2% and the “S(%)” value (SW948CPTL cells [8]; CPT-11 5 μg/ml) was 40.8 ± 6.4%. The “change of cell cycle” value (SW948CPTL cells [8]; similar amount of CPT-11) was “did not cause any change”, the IC50 ([9]; read-out: CPT-11 IC50 Dose, SW948CPTH xenograft #16 (CPT-11 treated tumor), 134 days after implant) was 24.7 µg/mL (≈ 42.1 µM) and the IC50 ([9]; read-out: CPT-11 IC50 Dose, SW948CPTH xenograft #51 (untreated tumor), 121 days after implant) was 18 µg/mL (≈ 30.7 µM). The IC50 ([9]; read-out: CPT-11 IC50 Dose, SW948CPTH xenograft #53 (untreated tumor), 124 days after implant) was 32.2 µg/mL (≈ 54.9 µM), the IC50 ([9]; read-out: CPT-11 IC50 Dose, SW948CPTH xenograft #54 (untreated tumor), 103 days after implant) was 25.1 µg/mL (≈ 42.8 µM) and the “G0-G1(%)” value (SW948CPTH cells [10]; CPT-11 1 μg/ml) was 45.7 ± 6.2%. For the same compound, the “G2-M(%)” value (SW948CPTH cells [10]; CPT-11 1 μg/ml) was 8.3 ± 3.1%, the “S(%)” value (SW948CPTH cells [10]; CPT-11 1 μg/ml) was 46 ± 7.5% and the “G0-G1(%)” value (SW948CPTH cells [10]; CPT-11 2 μg/ml) was 44.6 ± 3.8%. For the same compound, the “G2-M(%)” value (SW948CPTH cells [10]; CPT-11 2 μg/ml) was 8.9 ± 1.9%, the “S(%)” value (SW948CPTH cells [10]; CPT-11 2 μg/ml) was 46.5 ± 3.9% and the “G0-G1(%)” value (SW948CPTH cells [10]; CPT-11 5 μg/ml) was 45.0 ± 3.0%. For the same compound, the “G2-M(%)” value (SW948CPTH cells [10]; CPT-11 5 μg/ml) was 12.2 ± 2.3%, the “S(%)” value (SW948CPTH cells [10]; CPT-11 5 μg/ml) was 42.8 ± 4.9% and the “change of cell cycle” value (SW948CPTH cells [10]; similar amount of CPT-11) was “did not cause any change”.
